Assay results from patent US5604262A, “Topical antimicrobial agents” (Research Corporation Technologies, Inc., priority 1995, dated 1997).
Converted amounts (≈) assume the structure as drawn.

Experiments:
[1] = tested on: Bacillus subtilis ATCC 9372; assay: MIC by two-fold serial broth dilution; type: cell-based; details: B. subtilis; for MIC: Bacillus subtilis, ATCC9372, 48 h, NYG broth, two days, turbidity OD 660 nm
Source text: (§1) The microorganisms tested were from the American Type Culture Collection (Rockville, Md.). They are Bacillus subtilis ATCC 9372, Brevibacterium ammoniagenes ATCC 6872, Staphylococcus aureus ATCC 12598, Streptococus mutans ATCC 25175, Propionibacterium acnes ATCC 11827, Pseudimonas aeruginosa ATCC 10145, Enterobacter aerogenes ATCC 13048, Eschericia coli ATCC 9637, Proteus vulgaris ATCC […], Saccharomyces cerevisiae ATCC 7754, Candida utilis ATCC 9226, Pityrosporum ovale ATCC 14521, Penicillium chrysogenum ATCC 10106 and Trichophyton mentagrophytes ATCC 18748.
(§2) The bacterial culture media except for S. mutans was 0.8% nutrient broth (BBL), 0.5% yeast Extract (Difco) and 0.1% glucose (NYG broth). S. mutans was cultured in 3.7% brain heart infixsion broth (Difco). All fungi, except P. ovale and T. mentagrophytes were cultured in a 2.5% malt extract broth (BBL). P. ovale was cultured in 1% bactopeptone (Difco), 0.5% yeast extract, 1% glucose and 0.1% corn oil. For T. mentagrophytes the culture media was 1% bactopeptone and 4% glucose.
(§3) Freeze dried samples were prepared for testing as follows. B. subtilis, S. cerevisiae, C. utilis, and P. ovale, were shake-cultured for two days at 30° C. P. chrysogenum and T. mentagrophytes were shake-cultured for 5 days at 30° C. B. ammoniagenes and E. aerogenes were stationarily cultured at 30° C. S. aureus, S. mutans, P. acnes, P. aeruginosa, E. coli and P. vulgaris were stationarily cultured at 37° C.
(§4) The minimum inhibitory concentration (MIC) of the 3-alken-2-ones (compounds 1-4, 6-8) and 3,13-tetradecadien-2-one (compound 5) was performed using a two-fold serial broth dilution. Each test compound was dissolved in DMF and 30 μL of this sample was dissolved in 3 mL of the applicable medium. A 30 μL sample of the previously described culture of each microorganism was added to the various medium solutions. After two days, the cultures of B. subtilis, S. cerevisiae, C. utilis B. ammoniagenes, E. aerogenes, S. aureus, S. mutans, P. acnes, P. aeruginosa, E. coli and P. vulgaris were examined for turbidity (OD at 660 nm). The fungi, P. ovale, P. chrysogenum and T. mentagrophytes, were examined visually for growth at 3 days (P. ovale) and 5 days (P. chrysogenum and T. mentagrophytes). The MIC was determined as the lowest concentration for each compound that no growth was observed. The highest concentration used in these tests was 800 μg/mL.

[2] = tested on: Brevibacterium ammoniagenes ATCC 6872; assay: MIC by two-fold serial broth dilution; type: cell-based; details: B. ammoniagenes; for MIC: Corynebacterium ammoniagenes, ATCC6872, 48 h, NYG broth, two days, turbidity OD 660 nm
Source text: as §1, §2, §3, §4

[3] = tested on: Enterobacter aerogenes ATCC 13048; assay: MIC by two-fold serial broth dilution; type: cell-based; details: E. aerogenes; for MIC: Klebsiella aerogenes, ATCC13048, 48 h, NYG broth, two days, turbidity OD 660 nm
Source text: as §1, §2, §3, §4

[4] = tested on: Eschericia coli ATCC 9637; assay: MIC by two-fold serial broth dilution; type: cell-based; details: E. coli; for MIC: Escherichia coli, ATCC9637, 48 h, NYG broth, two days, turbidity OD 660 nm
Source text: as §1, §2, §3, §4

[5] = tested on: Penicillium chrysogenum ATCC 10106; assay: MIC by two-fold serial broth dilution; type: cell-based; details: P. chrysogenum; for MIC: Penicillium chrysogenum, ATCC10106, 120 h, malt extract broth, 5 days, visual
Source text: as §1, §2, §3, §4

[6] = tested on: Pityrosporum ovale ATCC 14521; assay: MIC by two-fold serial broth dilution; type: cell-based; details: P. ovale; for MIC: 72 h, bactopeptone/yeast extract/glucose/corn oil, 3 days, visual
Source text: as §1, §2, §3, §4

[7] = tested on: Propionibacterium acnes ATCC 11827; assay: MIC by two-fold serial broth dilution; type: cell-based; details: P. acnes; for MIC: Cutibacterium acnes, ATCC11827, 48 h, NYG broth, two days, turbidity OD 660 nm
Source text: as §1, §2, §3, §4

[8] = tested on: Proteus vulgaris ATCC 133315; assay: MIC by two-fold serial broth dilution; type: cell-based; details: ATCC133315, 48 h, P. vulgaris, NYG broth, two days, turbidity OD 660 nm
Source text: as §1, §2, §3, §4

[9] = tested on: Pseudimonas aeruginosa ATCC 10145; assay: MIC by two-fold serial broth dilution; type: cell-based; details: P. aeruginosa; for MIC: Pseudomonas aeruginosa, ATCC10145, 48 h, NYG broth, two days, turbidity OD 660 nm
Source text: as §1, §2, §3, §4

[10] = tested on: Saccharomyces cerevisiae ATCC 7754; assay: MIC by two-fold serial broth dilution; type: cell-based; details: S. cerevisiae; for MIC: Saccharomyces cerevisiae, ATCC7754, 48 h, malt extract broth, two days, turbidity OD 660 nm
Source text: as §1, §2, §3, §4

[11] = tested on: Staphylococcus aureus ATCC 12598; assay: MIC by two-fold serial broth dilution; type: cell-based; details: S. aureus; for MIC: Staphylococcus aureus, ATCC12598, 48 h, NYG broth, two days, turbidity OD 660 nm
Source text: as §1, §2, §3, §4

[12] = tested on: Streptococus mutans ATCC 25175; assay: MIC by two-fold serial broth dilution; type: cell-based; details: S. mutans; for MIC: Streptococcus mutans, ATCC25175, 48 h, brain heart infusion broth, two days, turbidity OD 660 nm
Source text: as §1, §2, §3, §4

[13] = tested on: Trichophyton mentagrophytes ATCC 18748; assay: MIC by two-fold serial broth dilution; type: cell-based; details: ATCC18748, 120 h, T. mentagrophytes, bactopeptone/glucose, 5 days, visual
Source text: as §1, §2, §3, §4

Candia utilis ATCC 9226 = assay: MIC by two-fold serial broth dilution; type: cell-based, Candida utilis; details: C. utilis; for MIC: Williopsis jadinii, ATCC9226, 48 h, malt extract broth, two days, turbidity OD 660 nm
Source text: as §1, §2, §3, §4

[14] = tested on: bacteria and fungi in the test, except S. mutans and P. acnes; assay: MIC test, all bacteria and fungi except S. mutans and P. acnes; type: cell-based; details: all of the bacteria and fungi in the test
Source text: as §1, §2
Freeze dried samples were prepared for testing as follows. […]
The minimum inhibitory concentration (MIC) of the 3-alken-2-ones (compounds 1-4, 6-8) and 3,13-tetradecadien-2-one (compound 5) was performed using a two-fold serial broth dilution. […] The MIC was determined as the lowest concentration for each compound that no growth was observed. […]

Pr. acnes = details: Kubo et al. 1994; cited from earlier work

SMILES	MIC [1]	MIC [2]	MIC [3]	MIC [4]	MIC [5]	MIC [6]	MIC [7]	MIC [8]	MIC [9]	MIC [10]	MIC [11]	MIC [12]	MIC [13]	MIC (Candia utilis ATCC 9226)	activity against Pr. acnes (in words) (Pr. acnes)	other results
CCCCCCC/C=C/C(C)=O [Compound 1, (E)-3-Undecen-2-one]	100 µg/mL (≈ 594 µM)	200 µg/mL (≈ 1190 µM)	> 800 µg/mL	> 800 µg/mL	100 µg/mL (≈ 594 µM)	100 µg/mL (≈ 594 µM)	50 µg/mL (≈ 297 µM)	50 µg/mL (≈ 297 µM)	> 800 µg/mL	800 µg/mL (≈ 4750 µM)	200 µg/mL (≈ 1190 µM)	100 µg/mL (≈ 594 µM)	100 µg/mL (≈ 594 µM)	50 µg/mL (≈ 297 µM)	–	–
CCCCCCCC/C=C/C(C)=O [Compound 2, (E)-3-Dodecen-2-one]	100 µg/mL (≈ 549 µM)	100 µg/mL (≈ 549 µM)	> 800 µg/mL	> 800 µg/mL	100 µg/mL (≈ 549 µM)	100 µg/mL (≈ 549 µM)	25 µg/mL (≈ 137 µM)	50 µg/mL (≈ 274 µM)	> 800 µg/mL	800 µg/mL (≈ 4390 µM)	100 µg/mL (≈ 549 µM)	50 µg/mL (≈ 274 µM)	100 µg/mL (≈ 549 µM)	400 µg/mL (≈ 2190 µM)	–	–
CCCCCCCCC/C=C/C(C)=O [Compound 3, (E)-3-Tridecen-2-one]	100 µg/mL (≈ 509 µM)	100 µg/mL (≈ 509 µM)	> 800 µg/mL	> 800 µg/mL	800 µg/mL (≈ 4070 µM)	100 µg/mL (≈ 509 µM)	12.5 µg/mL (≈ 63.7 µM)	800 µg/mL (≈ 4070 µM)	> 800 µg/mL	> 800 µg/mL	50 µg/mL (≈ 255 µM)	25 µg/mL (≈ 127 µM)	25 µg/mL (≈ 127 µM)	> 800 µg/mL	–	activity (in words) [1]: showed activity; activity (in words) [2]: showed activity; activity (in words) [3]: not active; activity (in words) [4]: not active; activity (in words) [5]: Weak activity; activity (in words) [6]: moderate inhibition; activity (in words) [7]: showed activity; activity (in words) [9]: not active; activity (in words) [10]: no activity; activity (in words) [11]: showed activity; activity (in words) [12]: showed activity; activity (in words) (Candia utilis ATCC 9226): no activity
CCCCCCCCCC/C=C/C(C)=O [Compound 4, (E)-3-Tetradecen-2-one]	> 800 µg/mL	> 800 µg/mL	> 800 µg/mL	> 800 µg/mL	800 µg/mL (≈ 3800 µM)	100 µg/mL (≈ 475 µM)	12.5 µg/mL (≈ 59.4 µM)	> 800 µg/mL	> 800 µg/mL	> 800 µg/mL	> 800 µg/mL	25 µg/mL (≈ 119 µM)	12.5 µg/mL (≈ 59.4 µM)	> 800 µg/mL	–	activity (in words) [3]: not active; activity (in words) [4]: not active; activity (in words) [5]: Weak activity; activity (in words) [6]: moderate inhibition; activity (in words) [7]: showed activity; activity (in words) [9]: not active; activity (in words) [10]: no activity; activity (in words) [12]: showed activity; activity (in words) (Candia utilis ATCC 9226): no activity
C=CCCCCCCCC/C=C/C(C)=O [Compound 5, (E)-3,13-Tetradecadien-2-one]	> 800 µg/mL	> 800 µg/mL	> 800 µg/mL	> 800 µg/mL	800 µg/mL (≈ 3840 µM)	200 µg/mL (≈ 960 µM)	12.5 µg/mL (≈ 60 µM)	> 800 µg/mL	> 800 µg/mL	> 800 µg/mL	> 800 µg/mL	25 µg/mL (≈ 120 µM)	12.5 µg/mL (≈ 60 µM)	> 800 µg/mL	–	–
CCCCCCCCCCC/C=C/C(C)=O [Compound 6, (E)-3-Pentadecen-2-one]	> 800 µg/mL	> 800 µg/mL	> 800 µg/mL	> 800 µg/mL	> 800 µg/mL	400 µg/mL (≈ 1780 µM)	6.25 µg/mL (≈ 27.9 µM)	> 800 µg/mL	> 800 µg/mL	> 800 µg/mL	> 800 µg/mL	200 µg/mL (≈ 891 µM)	800 µg/mL (≈ 3570 µM)	> 800 µg/mL	–	–
CCCCCCCCCCCC/C=C/C(C)=O [Compound 7, (E)-3-Hexadecen-2-one]	> 800 µg/mL	> 800 µg/mL	> 800 µg/mL	> 800 µg/mL	> 800 µg/mL	> 800 µg/mL	3.13 µg/mL (≈ 13.1 µM)	> 800 µg/mL	> 800 µg/mL	> 800 µg/mL	> 800 µg/mL	400 µg/mL (≈ 1680 µM)	> 800 µg/mL	> 800 µg/mL	–	activity (in words) [7]: strong activity; activity (in words) [12]: weakly active; activity (in words) [14]: inactive
CC(C)=CCCC(C)=CCCC(C)=CCO [farnesol]	–	–	–	–	–	–	–	–	–	–	–	–	–	–	exhibited activity	–
CC(C)=CCCC(C)=CCCC(C)=CCCC(C)O (stereo not drawn) [farnesyl acetol]	–	–	–	–	–	–	–	–	–	–	–	–	–	–	exhibited activity	–
CC(=O)CCC=C(C)CCC=C(C)CCC=C(C)C [farnesylacetone]	–	–	–	–	–	–	–	–	–	–	–	–	–	–	inactive	–
CC(C)=CCCC(C)=CCCC(C)O (stereo not drawn) [geranylacetol]	–	–	–	–	–	–	–	–	–	–	–	–	–	–	exhibited activity	–
